Data taken from patent publication US10336732B2, “1-heterocyclyl isochromanyl compounds and analogs for treating CNS disorders” (Sunovion Pharmaceuticals Inc., priority 2015, dated 2019).

Target: T1, 5-HT transporter (Homo sapiens, UniProt P31645)
T1 construct: expressed in transfected cells; host or cells: CHO cells
Experiment: In vitro radioligand binding assay, 5-HT transporter, [3H]imipramine
Details: human recombinant (CHO cells)
Protocol: Certain compounds were tested by in vitro binding assays using standard procedures. […] These receptors and assays are well known to those skilled in the art, as exemplified by the following: Abramovitz, M. et al. (2000), Biochem. Biophys. Acta., 1483: 285-293 (EP4, IP (PGI2)); Aharony, D. et al. (1993), Mol. Pharmacol., 44: 356-363 (NK2); Ardati, A. et al. (1997), Mol. Pharmacol., 51: 816-824 (NOP (ORL1)); Bignon, E. et al. (1999), J. Pharmacol. Exp. Ther. 289: 742-751 (CCK1 (CCKA)); Bloomquist, B. T. et al. (1998), Biochem. Biophys. Res. Commun., 243: 474-479 (GAL2); Brockhaus, M. et al. (1990), Proc. Natl. Acad. Sci. U.S.A., 87: 3127-3131 (TNF-α); Brown, G. B. (1986), J. Neurosci., 6: 2064-2070 (Na+ channel (site 2)); Buchan, K. W. et al. (1994), Brit. J. Pharmacol., 112: 1251-1257 (ETA); Cesura, A. M. et al. (1990), Mol. Pharmacol., 37: 358-366 (MAO-A); Choi, D. S. et al. (1994), FEBS Lett., 352: 393-399 (5-HT2B); Clark, A. F. et al. (1996), Invest. Ophtalmol. Vis. […]

T1 sequence (P31645 whole entry): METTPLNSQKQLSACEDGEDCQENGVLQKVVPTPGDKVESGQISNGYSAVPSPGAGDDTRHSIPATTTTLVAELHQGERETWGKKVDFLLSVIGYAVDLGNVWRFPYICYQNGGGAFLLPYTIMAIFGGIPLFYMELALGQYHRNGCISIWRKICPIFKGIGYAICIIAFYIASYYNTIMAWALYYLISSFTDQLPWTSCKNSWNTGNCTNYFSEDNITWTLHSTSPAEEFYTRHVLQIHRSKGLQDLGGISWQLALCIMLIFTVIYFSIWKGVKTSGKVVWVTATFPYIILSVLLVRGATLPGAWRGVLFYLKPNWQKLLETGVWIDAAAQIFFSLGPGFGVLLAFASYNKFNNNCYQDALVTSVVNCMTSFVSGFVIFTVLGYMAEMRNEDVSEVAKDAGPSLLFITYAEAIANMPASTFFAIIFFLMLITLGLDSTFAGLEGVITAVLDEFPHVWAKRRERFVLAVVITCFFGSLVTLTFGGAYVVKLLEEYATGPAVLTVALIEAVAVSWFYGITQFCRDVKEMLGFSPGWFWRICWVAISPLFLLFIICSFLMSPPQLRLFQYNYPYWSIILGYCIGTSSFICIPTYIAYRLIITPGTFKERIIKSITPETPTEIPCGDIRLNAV

Fc1ccc2c(c1)CCO[C@H]2[C@@H]1CCN1 [Compound I-90, (S)-2-((R)-6-fluoroisochroman-1-yl)azetidine]
Sert percent inhibition of specific binding: 80%
